Results on three molecules are retold here after patent publication EP0497609B1, “Pyrimido-benzothiazine derivatives for the treatment of inflammation, allergy and cardiovascular disease” (PFIZER INC., priority 1991, dated 1992).

Holding throughout (format): in vivo
For one data set, the system named is mouse. Put plainly: PAF (Platelet Activating Factor) lethality assay. The settings on record: for PAF lethality survival (%): Dose 50 mg/kg. An excerpt: (§1) The compounds of formulae (I) and (II) of this invention can be shown to inhibit lipoxygenase according to various testing methods. Such methods include the following: RPC (Rat Peritoneal Cavity resident cells) assay according to methods described in Jap. J. Inflammation 7:145-150 (1987), "Synthesis of leukotrienes by peritoneal macrophages"; PAF (Platelet Activating Factor) lethality assay according to methods described in Prostaglandisis 30(4):545-551 (1985); and y-RFE (yeast induced Rat Foot Edema) assay according to methods described in Biochem. Pharmacol. 36:547 (1987).
In the PAF lethality assay, the compound of Example 5, as shown in the Table above, gave a high (69%) survival percentage. The term "survival percentage" herein means the inhibitory efficacy to shock death of the mouse through lipoxygenase metabolites activated by dosing with PAF.

The subject of the next data set is rat foot. Description: y-RFE (yeast induced Rat Foot Edema) assay. The settings on record: Dose 60 mg/kg; rat foot edema induced by yeast suspension.
Text: as §1
Furthermore, in the y-RFE assay, the compound of Example 5, as shown in the Table above, gave a high (69%) edema inhibitory percentage. The term "edema inhibitory percentage" herein means the inhibitory efficacy to the swelling of inflammatory edema of the rat foot induced by the injection of yeast suspension.

The subject of the next data set is male ICR mice. Put plainly: Acute toxicity after oral administration. The settings on record: 7 hours after oral administration at 600 mg/kg to male ICR mice. As to the method:
Acute toxicity of the compound of Example 5 was investigated 7 hours after oral administration at 600 mg/kg to male ICR mice (Charles River Japan Inc., 5 weeks old, avg. body weight of 28 g).

Each structure is given as a SMILES string.

In the case of `O=c1[nH]c2c(c(=O)[nH]1)Nc1ccccc1S2` [Example 1, 1,5-Dihydro-2H-pyrimido[4,5-b][1,4]benzothiazine-2,4(3H)-dione], the “PAF lethality survival (%)” value in the data set on mouse amounted to 56%.
The same measure, in the same setting: to `Cn1c(=O)[nH]c2c(c1=O)Nc1ccccc1S2` [Example 2, 1,5-Dihydro-3-methyl-2H-pyrimido[4,5-b][1,4]benzothiazine-2,4(3H)-dione] belongs 30%.
Turning to `Cn1c(=O)nc2sc3ccccc3nc-2c1=O` [Example 5, 3-Methyl-2H-pyrimido[4,5-b][1,4]benzothiazine-2,4(3H)-dione], the “PAF lethality survival (%)” value in the data set on mouse is given as 69%. For the same molecule, the ED50 in the data set on mouse (Platelet, read-out: ED₅₀ value in the PAF lethality assay) is 51 mg/kg. The “y-RFE edema inhibitory (%)” value with rat foot is reported as 69%. Further, the Acute toxicity entry with male ICR mice is “did not show any acute toxic symptoms”.
